Data reported in patent US10947254B2, “Methods for treating ulcerative colitis using 3-((1R,3s,5S)-3-((7-((5-methyl-1H-pyrazol-3-yl)amino)-1,6-naphthyridin-5-yl)amino)-8-azabicyclo[3.2.1]octan-8-yl)propanenitrile” (priority 2015, dated 2021).

Legend:
[1] = tested on: oxazolone-induced colitis; experiment: Mouse model of oxazolone-induced colitis; format: in vivo, BALB/C mice; conditions: mice
Method: Assay 7: Mouse Model of Oxazalone-Induced Colitis
Oxazolone-induced colitis is an experimental model that has a histological resemblance to human ulcerative colitis (Heller et al. Immunology, 2002, 17, 629-638). Adult BALB/C mice from Harlan were used in the assay. On day 1, animals were lightly anesthetized with isoflurane and the hairs between the shoulder were carefully removed before oxazolone (4%, 150 μL, 4:1 acetone:olive oil formulation) or vehicle solution was slowly applied for skin sensitization. Seven days after skin sensitization, the mice were fasted overnight, anesthetized with isoflurane inhalation, and a 1 mL syringe equipped with a 3.5-F catheter, filled with oxazolone solution, was inserted carefully about 4 cm into the colon of the mouse. Following insertion, 50 μL of the oxazolone solution (1%, 1:1 ethanol:water formulation) was injected very slowly (over 30 sec using an injection pump) into the colon. The catheter was removed and the mice were held vertically (head down) for 2 min to ensure that the entire oxazolone solution remained inside the colon. Drug treatment (PO, BID or TID) or vehicle was initiated a day prior to the oxazolone intrarectal (IR) challenge. Two-day post oxazolone intrarectal challenge, the Disease Activity Index (DAI) was assessed by treatment-blinded experimenters for each mouse according to the criteria score: stool consistency score (0, normal; 2, loose; 4, diarrhea), gross bleeding score (0, absence; 2, blood tinged; 4, presence), and weight loss score (0, none; 1, 1%-5%; 2, 5%-10%; 3, 10%-20%; 4, more than 20%); DAI=average of (stool consistency score+gross bleeding score+weight loss score).
Selected compounds of the invention were tested in the assay. Efficacy in the model is evidenced by a decrease in DAI score as compared with the score from vehicle treated animals.

[2] = Pharmacokinetics in plasma and the GI tract in rats; format: in vivo, Sprague Dawley rats; conditions: oral dosing in preclinical species
Method: Assay 6: Pharmacokinetics in Plasma and the GI Tract in Rats and Dogs A test compound was dosed to male Sprague Dawley rats (n=3) as described in Assay 5. […] At all time points, the plasma concentration was below the limit of quantitation of 0.001 μg/mL.

[3] = First in human study of safety, tolerability and pharmacokinetics in healthy subjects; format: in vivo; conditions: by comparison to other orally administered compounds
Method: Assay 9: First in Human Study to Evaluate the Safety, Tolerability and Pharmacokinetics in Healthy Subjects
The compound of Example 1 was evaluated in a double-blinded, randomized, placebo-controlled, single ascending dose (SAD) and multiple ascending dose (MAD) study of safety, tolerability, and pharmacokinetics in healthy subjects. Pharmacokinetic samples were collected up to 72 hours post the final dose in both the SAD study (after the first dose) and MAD study (after 14 days of once-daily dosing). The SAD study enrolled 5 cohorts and the MAD study enrolled 4 cohorts totaling 72 subjects, of which 71 completed the dosing period.
Plasma pharmacokinetic (PK) parameters were determined by non-compartmental analysis using WinNonLin Version 6.4.0 (Pharsight, St Louis, Mo.). The plasma PK parameter presented here is:
Cmax: Maximum Concentration in Plasma

[4] = tested on: splenic NK, B and T cells; experiment: Immunosuppression effects in mouse splenic natural killer (NK) cells; format: in vivo, Balb/C mice; conditions: mice, three days
Method: Adult male Balb/C mice (12-14 weeks of age) from Harlan were used for the study. […] Spleens were harvested 1 or 2 h post last dose and crushed immediately for cell subtype staining. Prior to fixation, fluorophore-labelled antibodies for CD19 (FITC; B cells), CD3e (PE; pan T cells) and DX5 (APC; NK cells) were incubated with splenocyte samples from each animal to allow for simultaneous, multiple subtype % analysis on the flow cytometer. The number of total spleen cells for each animal was measured by Scepter™ 2.0 Handheld Automated Cell Counter. The absolute number of lymphocyte subtype population (e.g., splenic B, T and NK cells) was calculated from the percentage of each subtype times total spleen cells for each animal. A one way ANOVA, with Dunnett's post hoc test, was used to compare the splenic lymphocytes number of the vehicle and test compound groups. The a level was set at p<0.05. Data were presented as the mean±SEM for each group.

JAK3 = JAK3 (Homo sapiens (Human), UniProt P52333); experiment: Biochemical JAK assay (LanthaScreen), JAK3
Method: (§1) Assay 1: Biochemical JAK and Off-Target Kinase Assays
(§2) A panel of four LanthaScreen JAK biochemical assays (JAK1, 2, 3 and Tyk2) were carried in a common kinase reaction buffer (50 mM HEPES, pH 7.5, 0.01% Brij-35, 10 mM MgCl2, and 1 mM EGTA). Recombinant GST-tagged JAK enzymes and a GFP-tagged STAT1 peptide substrate were obtained from Life Technologies.
Serially diluted compounds were pre-incubated with each of the four JAK enzymes and the substrate in white 384-well microplates (Corning) at ambient temperature for 1 h. ATP was subsequently added to initiate the kinase reactions in 10 μL total volume, with 1% DMSO. […] The plates were allowed to incubate at ambient temperature for 1 h before being read on the EnVision reader (Perkin Elmer).
(§3) Results were expressed as pIC50 (negative logarithm of IC50) and subsequently converted to pKi (negative logarithm of dissociation constant, Ki) using the Cheng-Prusoff equation.

JAK2 = JAK2 (Homo sapiens (Human), UniProt O60674); format: biochemical
Method: as §1, §2
(§4) Serially diluted compounds were pre-incubated with each of the four JAK enzymes and the substrate in white 384-well microplates (Corning) at ambient temperature for 1 h. ATP was subsequently added to initiate the kinase reactions in 10 μL total volume, with 1% DMSO. […] Kinase reactions were allowed to proceed for 1 hour at ambient temperature before a 10 μL preparation of EDTA (10 mM final concentration) and Tb-anti-pSTAT1 (pTyr701) antibody (Life Technologies, 2 nM final concentration) in TR-FRET dilution buffer (Life Technologies) was added. The plates were allowed to incubate at ambient temperature for 1 h before being read on the EnVision reader (Perkin Elmer).
as §3

TYK2 = TYK2 (Homo sapiens (Human), UniProt P29597); format: biochemical
Method: as §1, §2, §4, §3

[5] = tested on: IL-4 induced STAT6 phosphorylation in THP-1 human monocytic cells; conditions: THP-1 cells
[6] = 5% to 90% relative humidity, room temperature; listed as Crystalline 3-(1R,3s,5S)-3-((7-((5-methyl-1H-pyrazol-3-yl)amino)-1,6-naphthyrid))
Method: A weighed sample was used and the humidity was lowest possible value (close to 0% RH) at the start of the analysis. The DMS analysis consisted of an initial drying step (0% RH) for 120 minutes, followed by two cycles of sorption and desorption with a scan rate of 5% RH/step over the humidity range of 5% RH to 90% RH. The DMS run was performed isothermally at 25° C.

Sequence of JAK3 (P52333 whole entry): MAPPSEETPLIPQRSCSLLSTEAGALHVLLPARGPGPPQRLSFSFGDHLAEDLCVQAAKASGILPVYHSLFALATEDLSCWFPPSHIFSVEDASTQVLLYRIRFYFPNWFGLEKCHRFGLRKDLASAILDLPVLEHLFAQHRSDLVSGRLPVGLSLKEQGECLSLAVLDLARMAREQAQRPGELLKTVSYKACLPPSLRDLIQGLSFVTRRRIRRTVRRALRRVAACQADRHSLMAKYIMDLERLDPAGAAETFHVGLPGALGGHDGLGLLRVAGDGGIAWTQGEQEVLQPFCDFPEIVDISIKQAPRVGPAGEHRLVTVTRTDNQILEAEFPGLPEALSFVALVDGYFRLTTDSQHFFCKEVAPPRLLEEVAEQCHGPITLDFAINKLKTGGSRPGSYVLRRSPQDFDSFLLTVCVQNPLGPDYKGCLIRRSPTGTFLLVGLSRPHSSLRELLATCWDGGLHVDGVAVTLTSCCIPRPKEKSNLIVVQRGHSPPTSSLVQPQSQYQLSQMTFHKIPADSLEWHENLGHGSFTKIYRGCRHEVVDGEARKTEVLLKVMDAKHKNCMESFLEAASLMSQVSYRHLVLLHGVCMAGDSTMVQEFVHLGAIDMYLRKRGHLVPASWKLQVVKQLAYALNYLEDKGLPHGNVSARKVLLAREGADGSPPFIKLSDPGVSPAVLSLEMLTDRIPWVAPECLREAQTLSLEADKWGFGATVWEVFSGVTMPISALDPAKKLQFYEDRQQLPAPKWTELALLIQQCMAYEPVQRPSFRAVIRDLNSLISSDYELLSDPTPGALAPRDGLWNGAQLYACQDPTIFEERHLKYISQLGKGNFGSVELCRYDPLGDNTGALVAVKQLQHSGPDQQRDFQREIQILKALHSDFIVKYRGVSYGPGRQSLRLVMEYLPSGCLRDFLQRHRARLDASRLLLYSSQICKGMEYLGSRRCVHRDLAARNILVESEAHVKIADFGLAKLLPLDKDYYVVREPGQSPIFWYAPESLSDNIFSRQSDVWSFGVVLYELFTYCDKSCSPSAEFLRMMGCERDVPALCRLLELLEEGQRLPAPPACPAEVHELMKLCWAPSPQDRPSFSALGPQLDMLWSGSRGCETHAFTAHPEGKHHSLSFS
Sequence of TYK2 (P29597 whole entry): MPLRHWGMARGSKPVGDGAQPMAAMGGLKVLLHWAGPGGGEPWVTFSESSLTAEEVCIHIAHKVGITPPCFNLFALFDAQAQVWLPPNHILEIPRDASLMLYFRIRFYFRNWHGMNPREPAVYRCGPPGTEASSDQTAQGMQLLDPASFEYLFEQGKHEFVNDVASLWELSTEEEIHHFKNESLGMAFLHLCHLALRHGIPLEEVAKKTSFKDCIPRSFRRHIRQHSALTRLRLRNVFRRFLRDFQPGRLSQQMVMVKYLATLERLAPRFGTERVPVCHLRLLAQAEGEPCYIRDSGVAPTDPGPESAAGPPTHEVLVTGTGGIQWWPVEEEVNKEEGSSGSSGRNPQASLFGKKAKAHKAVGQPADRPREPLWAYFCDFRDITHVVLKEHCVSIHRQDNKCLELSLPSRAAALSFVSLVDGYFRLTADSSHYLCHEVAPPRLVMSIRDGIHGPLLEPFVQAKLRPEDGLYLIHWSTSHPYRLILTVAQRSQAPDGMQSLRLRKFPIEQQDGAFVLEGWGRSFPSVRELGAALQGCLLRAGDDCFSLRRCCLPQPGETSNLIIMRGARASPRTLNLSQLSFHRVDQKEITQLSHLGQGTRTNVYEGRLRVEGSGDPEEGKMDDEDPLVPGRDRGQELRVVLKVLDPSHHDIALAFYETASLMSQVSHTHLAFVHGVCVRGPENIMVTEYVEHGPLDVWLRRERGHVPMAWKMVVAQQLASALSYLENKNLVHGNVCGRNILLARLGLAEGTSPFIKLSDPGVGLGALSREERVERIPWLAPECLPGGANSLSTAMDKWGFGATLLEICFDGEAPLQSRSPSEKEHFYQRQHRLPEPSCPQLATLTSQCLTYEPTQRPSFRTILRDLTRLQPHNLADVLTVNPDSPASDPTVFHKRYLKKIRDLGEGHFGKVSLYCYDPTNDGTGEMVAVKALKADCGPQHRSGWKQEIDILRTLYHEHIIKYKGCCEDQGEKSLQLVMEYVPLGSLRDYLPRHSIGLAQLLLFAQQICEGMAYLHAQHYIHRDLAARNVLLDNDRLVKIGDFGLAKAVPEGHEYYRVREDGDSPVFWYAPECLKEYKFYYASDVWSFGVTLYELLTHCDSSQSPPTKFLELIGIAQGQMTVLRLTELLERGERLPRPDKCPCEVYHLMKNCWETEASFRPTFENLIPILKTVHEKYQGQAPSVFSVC
Sequence of JAK2 (O60674 whole entry): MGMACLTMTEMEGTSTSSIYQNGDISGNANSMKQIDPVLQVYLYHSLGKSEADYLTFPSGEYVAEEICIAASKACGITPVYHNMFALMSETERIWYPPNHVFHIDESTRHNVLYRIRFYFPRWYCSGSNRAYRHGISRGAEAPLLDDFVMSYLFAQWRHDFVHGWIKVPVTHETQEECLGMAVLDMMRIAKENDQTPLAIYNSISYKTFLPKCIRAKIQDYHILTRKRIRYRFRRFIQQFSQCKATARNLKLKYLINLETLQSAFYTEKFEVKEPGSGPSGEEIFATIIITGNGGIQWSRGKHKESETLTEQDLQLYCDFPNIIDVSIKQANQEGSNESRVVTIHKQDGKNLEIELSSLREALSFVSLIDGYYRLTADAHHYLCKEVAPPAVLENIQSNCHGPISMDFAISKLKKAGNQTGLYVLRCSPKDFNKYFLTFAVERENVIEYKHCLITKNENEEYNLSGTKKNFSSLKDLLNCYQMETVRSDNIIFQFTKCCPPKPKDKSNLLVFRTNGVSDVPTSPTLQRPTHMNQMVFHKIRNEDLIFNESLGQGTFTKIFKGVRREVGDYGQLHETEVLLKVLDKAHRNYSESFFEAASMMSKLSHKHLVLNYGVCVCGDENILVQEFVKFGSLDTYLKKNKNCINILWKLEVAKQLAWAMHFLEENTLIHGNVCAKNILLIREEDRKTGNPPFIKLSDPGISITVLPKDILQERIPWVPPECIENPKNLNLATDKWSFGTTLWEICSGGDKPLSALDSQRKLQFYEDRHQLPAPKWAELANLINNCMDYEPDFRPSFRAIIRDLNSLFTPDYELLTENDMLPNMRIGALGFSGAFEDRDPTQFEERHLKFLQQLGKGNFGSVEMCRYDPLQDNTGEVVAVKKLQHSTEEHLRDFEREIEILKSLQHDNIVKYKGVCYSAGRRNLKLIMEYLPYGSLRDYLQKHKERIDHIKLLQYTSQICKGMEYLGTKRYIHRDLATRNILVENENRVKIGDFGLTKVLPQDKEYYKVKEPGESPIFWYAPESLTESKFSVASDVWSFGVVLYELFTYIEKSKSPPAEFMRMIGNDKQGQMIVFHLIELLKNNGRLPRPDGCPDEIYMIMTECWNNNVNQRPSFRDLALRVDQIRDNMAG

In the case of `Cc1cc(Nc2cc3ncccc3c(N[C@@H]3C[C@H]4CC[C@@H](C3)N4CCC#N)n2)n[nH]1` [Example 1, 3-((1R,3s,5S)-3-((7-((5-methyl-1H-pyrazol-3-yl)amino)-1,6-naphthyridin-5-yl)amino)-8-azabicyclo[3.2.1]octan-8-yl)propanenitrile], the “activity in the oxazolone-induced colitis model” value [1] is reported as “demonstrated activity”, the “decrease in DAI score as compared with vehicle treated animals” value ([1]; PO, 1, 3, and/or 10 mg/kg BID (doses up to 10 mg/kg BID)) is reported as “statistically significant decrease” and the “exposure throughout the gastrointestinal tract vs exposure in plasma” value [2] is reported as “significantly higher exposure”. For the same molecule, the oral bioavailability [3] was “very low”, the “splenic NK cell counts” value ([4]; PO BID doses up to 100 mg/kg) was “unaffected” and the “treatment effect on B and T cell populations” value ([4]; PO BID) was “No treatment effect”.

For `COCC1CCCN1S(=O)(=O)N1[C@@H]2CCC[C@H]1C[C@H](Nc1nc(Nc3cc(C)[nH]n3)cc3ncccc13)C2` (some centres unmarked) [Example 4-28], the “JAK 3 (pKi)” value (JAK3) was “C (C represents a pKi value between 7 and 9 (Ki between 100 nM and 1 nM))”, the “JAK 2 (pKi)” value (JAK2) was “B (B represents a pKi value between 9 and 10 (Ki between 1 nM and 0.1 nM))” and the “Tyk 2 (pKi)” value (TYK2) was “B (B represents a pKi value between 9 and 10 (Ki between 1 nM and 0.1 nM))”. The “THP-1 IL4 pIC50” value [5] was “A (A represents a pEC50 value ≥7.5 (EC50≤32 nM))”.

With `Cc1cc(Nc2cc3ncccc3c(N[C@@H]3C[C@H]4CC[C@@H](C3)N4CCC#N)n2)n[nH]1` [Form I, 3-((1R,3s,5S)-3-((7-((5-methyl-1H-pyrazol-3-yl)amino)-1,6-naphthyridin-5-yl)amino)-8-azabicyclo[3.2.1]octan-8-yl)propanenitrile] the “weight gain / weight change on exposure to humidity” value [6] was “less than 0.15%”.
